Values joined by “and” are separate entries in the source; they are usually repeats but may differ in a detail not shown here. Equal values may be shown once.
Legend:
[1] = test system: JAK2V617F bone marrow transduced cells; assay: Histology of bone marrow and spleen (cellularity, splenic architecture, reticulin fibrosis) in JAK2V617F bone marrow transplant model; assay type: in vivo, mouse; details: 21 days; for Bone marrow hypercellularity / Splenic architecture: Compound B 8 mg/kg, Compound A 60 mg/kg or both; for Bone marrow hypercellularity: rank Combo>Compound A=Compound B; for Splenic architecture: rank Combo>Compound A>Compound B
Source text: and spleens were collected, fixed in formalin, trimmed, embedded in paraffin and sectioned at (nominally) 4 μm using a microtome. […] Briefly, the spleen was removed in total, weighed and placed on a dissection tray. The spleen was cut transverse in two halves and two equal pieces were taken from the middle parts using a scalpel. […] Baker, Medite, Switzerland). Fixative volume was at least tenfold in excess compared to tissue volume. […] After a last wash in PBS, the tissues were cut up and set with the surface of interest downwards in a universal histocassette followed by processing in a TPC 15Duo (Tissue Processing Center) for paraffinization. From each tissue paraffin block, several 3 μm thick sections were cut on a sliding or rotary microtome (Mikrom International AG, Switzerland), spread in a 45° C. water-bath, mounted on microscope slides (Polysine, VWR International, Leuven, Belgium), and air-dried in an oven at 37° C. overnight. Dry tissue section slides were taken out of the oven and placed in the slide rack of the linear stainer COT20 (Medite, Switzerland) for fully automated H&E (Haematoxylin &Eosin) staining or processed for immunohistochemistry (IHC) staining. For IHC, tissue section samples were stained with rabbit anti-phospho STAT5 antibody (clone C11C5), and rabbit anti-acetyl Histone H3 antibody (Millipore, MA, USA) coverslipped and air-dried. […] Splenic architecture was evaluated as destroyed (1+) or preserved (0). Presence of myeloid, erythroid and adipocytes cells was evaluated as 0, 1+, 2+, 3+ based on cellularity. […] Whole slide automated quantitative assessment of p-STAT5-positive and -negative cell nuclei were performed using Definiens eCognition software (eCognition version XD 1.5, Definiens AG, Germany). The results were expressed as percent of positive p-STAT5 nuclei out of total nuclei.

[2] = Stability of dosing solution at room temperature; assay type: physicochemical
Method: Compound B was administered as the lactate salt by intraveneous or intraperitoneal injection. The lactic salt of Compound B was formulated in isotonic D5W (5% Dextrose; B. Braun, Lot 395147) at a concentration of 1.5 mg/ml, 1 mg/ml and 0.5 mg/ml, respectively. The solution was stable for up to 10 days at room temperature. Treatment was given 3 times a week at a volume of 10 ml/kg. The final equivalent free-base doses were respectively 11.90, 7.94 and 3.97 mg/kg. In the figures, these doses are reported as whole values.
The mono-phosphate salt of Compound A was formulated in 0.5% HPMC (Pharmacoat 603, Dow Chemical Plaqueline, USA) at a concentration of 7.9 mg/ml. Solution was stable at room temperature for 4 days. Treatment was given bid at a volume of 10 ml/kg. The final equivalent free-base dose was 60 mg/kg.

[3] = test system: Ba/F3 EpoR JAK2V617F-luc clone 8 cells; assay: Ba/F3 EpoR JAK2V617F-luc cells-driven leukemic disease mouse model, Xenogen bioluminescence; assay type: in vivo; details: for Fractional change in Biolux: biolux last day/first day, mean; for T/C last day (%): (treated/control)·100
Method: A study is conducted to test the efficacy of the combination of Compound A and Compound B in Scid-beige mice injected i.v. (tail vein) with 1·10^6 Ba/F3 EpoR JAK2V617F-luc clone 8 cells.
• 80 Scid-beige female mice, 18-22 g (8 groups of 7 mice, 24 excluded at time of randomization) • Cells: Ba/F3 EpoR JAK2V617F-luc clone 8 cells. • Whole body Xenogen imaging was performed on days 4, 7, 9 and 11 after cell injection. Randomization of animals into treatment groups was based on bioluminescence (BioL) on day 4 after cell injection. • The mouse model and the protocol is described by Baffert et al., Mol. Cancer Ther; 9(7), 1945, July 2010. Animal and Cell line: • Cell line: Ba/F3EpoR JAK2V617F-luc clone 8 • Gene: JAK2V617F • Cell-Nr./Injection site: 1×10e6 cells in 200 ul/tail i.v. injection • Species: mouse • Strain: CB17/C.B-Igh-l^b/GbmsTac-Prkdc^scid-lyst^bgN7, Taconic farms (complete name Taconic) • Gender: female • Age: […] • Number: 80 mice
Ba/F3 EpoR JAK2V617F-luc cells are grown in RPMI1640 supplemented with 10% FCS, 1% Glutamine, Puromycin (1 ug/mL) and Hygromycin (100 ug/mL). Cells are splited every three days (1:50) not more than two weeks before experiment. The day prior the injection, cells are grown without any antibiotics (to avoid any potential delay in cell growth in vivo).
The day of injection the cells are harvested and resuspended in HBSS buffer (10e6 cells in 200 ul). Cells are injected in tail vein using 27G tuberculin syringe. […]
Bioluminescence are recorded using the Xenogen Camera (non invasive IVIS® Imaging system, Caliper) on day 4, day 7 and 10 post cell injection under isofluran anesthesia (3-5% vol isofluran, 0.8 L/min air flow). Animals are injected i.p. with D-luciferin (Xenogen corporation, ref XR-1001), at 150 mg/kg (10 ml/kg, Nacl). Anesthetized mice are then placed in the imaging chamber for imaging 15 minutes after the luciferin injection.
Animals are randomized on day 4 and treatment started for at least 6 days based on well being of vehicle treated animals.

[4] = test system: JAK2V617F bone marrow transduced cells; assay: JAK2V617F bone marrow transplant model of polycythemia vera-like disease (spleen weight, blood counts, GFP-positive cells)
Method: Briefly, Balb/c donor mice (6-8 weeks, Charles River, males or females) were treated 5 days prior BM transplant with 5-fluorouracil (150 mg/kg, i.p., Sigma-Aldrich, cat #F6627). Bone marrow cells from donor mice were harvested by flushing femurs and tibias. After red cell lysis (StemCellTechnologies, Grenoble, France, cat #07800), nucleated cells were cultured for 24 hours in transplant medium (RPMI+10% FCS+25 ng/ml IL3 (R&D Systems, Abington, UK, cat #403-ML), 25 ng/ml IL6 (R&D Systems cat #406-ML), and 50 ng/ml Stem Cell Factor (SC F, Bioconcept, Allschwill, Switzerland, cat #D-63120). The next day, cells were plated at 2×10^6cells/ml/well in 6 well plates in the presence of 1 mL of supernatant containing virions from 293T transfected with 10 μg of p-MSCV-JAK2V617F-IRES-GFP vector (modification of original vector p-MSCV vector purchased from Clontech) and 10 μg of pCL-ECO vector (Imgenex, cat #10045P). After two spin-infections (2500 rpm for 90 min at 32° C., Multifuge 1S-R, Heraeus) unselected infected BM cells were resuspended in Hank's balanced salt solution (HBSS) before cell injection (1-3×10^6 depending on infection rate) into the tail vein of lethally irradiated Balb/c female recipient mice (total 9 Gy or 7 Gy) given as two 4.5 or 3.5 Gy doses 4 hours apart) using a BIOBEAM 8000, gamma irradiator (BEBIG GmbH, Germany).
(§1) Animals were monitored daily and sacrificed in case of major signs of distress (excessive body weight loss over more than 2 consecutive days without improvement, combined with lethargy and piloerection).
Blood was drawn from the tail vein or at sacrifice from the vena cava with a 20 G needle under isoflurane anesthesia (terminal procedure) and analyzed using an automated complete and differential blood cell counter (capillary mode using dilution 1:5 on a Sysmex blood analyzer, XT2000iV, Sysmex Digitana AG, Norderstedt, Germany). Spleens were weighed to evaluate splenomegaly. Blood, spleens, sterna, and livers were collected for pharmacokinetic, pharmacodynamic.
Ten microliters of whole blood were used to detect circulating GFP-positive cells. Briefly, blood was distributed into a 96-well round bottom plate (Costar, cat #3795) and red blood cells (RBC) were lysed with 200 μl of red blood cell lysis buffer (Sigma, cat #R-7757). After an incubation period of 7 min. in the dark on a plate agitator, cells were centrifuged (5 min., 300 g) and the supernatant discarded by inversion of the plate. After 3 washing steps in FACS buffer (phosphate buffered saline (D-PBS), 3% FBS and 0.02% sodium azide), nucleated cells were resuspended in 200 μl of cold FACS buffer and processed for GFP detection using a LSRII flow cytometer (BD Biosciences, Heidelberg, Germany).
(§2) Mice were randomized on day 27 post BMT based on Hct values (67% in average in this experiment, N=9/group) and treated with Compound B (8 mg/kg, 3×/week MWF, i.p.) and Compound A (60 mg/kg, q12h, p.o.) as single agents or combined.

[5] = Body weight change in JAK2V617F bone marrow transplant model; details: sacrifice day after 21 days; Compound B 8 mg/kg ip 3 times a week, Compound A 60 mg/kg po q12h, or Combo of both
Method: as §1
Results shown in the figures and tables represent means±SEM. Percentage change in body weights and absolute values or transformed values (log10, or other as specified) for spleen weights, reticulocyte, WBC counts, Hct and histological data were analyzed by unpaired t-test or Rank-Sum test to compare a single treatment group to vehicle group or one way ANOVA followed by Dunnett's test to compare treatment groups to vehicle group. Multiple comparisons were done using the Tukey's test. All comparisons were done on sacrifice day. The significance level was set to p<0.05. Calculations were performed using GraphPad Prism for Windows (GraphPad Software Inc.).
as §2

[6] = sacrifice day after 21 days, Compound B 8 mg/kg ip, Compound A 60 mg/kg po q12h, or Combo
[7] = Compound A 60 mg/kg po twice a day

**Q.** Which results are given for `Cc1[nH]c2ccccc2c1CCNCc1ccc(/C=C/C(=O)NO)cc1` [Compound B, N-hydroxy-3-[4-[[[2-(2-methyl-1H-indol-3-yl)-ethyl]-amino]methyl]phenyl]-2E-2-propenamide]?
**A.** Bone marrow hypercellularity [1]: decrease; Splenic architecture [1]: improved; Stability of solution at room temperature ([2]; lactic salt in isotonic D5W (5% Dextrose), 0.5-1.5 mg/ml): up to 10 days; Fractional change in Biolux ([3]; Compound B 4 mg/kg ip M/W/F (free-base equivalent)): 481; T/C last day (%) ([3]; Compound B 4 mg/kg ip M/W/F): 27%; T/C last day (%) ([3]; Compound B 8 mg/kg ip M/W/F): 20%; Fractional change in Biolux ([3]; Compound B 8 mg/kg ip M/W/F): 351; T/C last day (%) ([3]; Compound B 12 mg/kg ip M/W/F): 11%; Fractional change in Biolux ([3]; Compound B 12 mg/kg ip M/W/F): 204; Hct (%) (mean ± SEM) [4, 6]: 52.2%; Retic counts (×10^12/L) (mean ± SEM) [4, 6]: 0.24 ×10^12/L; BW change (%) (mean ± SEM) [5]: −5% and −4.57%

**Q.** Which “Fibrosis score (reticulin staining on sternum sections)” value ([1]; Compound A 60 mg/kg or combination with Compound B 8 mg/kg, high variability) does the source give for `N#CC[C@H](C1CCCC1)n1cc(-c2ncnc3[nH]ccc23)cn1` [Compound A, (R)-3-(4-(7H-pyrrolo[2,3-d]pyrimidin-4-yl)-1H-pyrazol-1-yl)-3-cyclopentylpropanenitrile] here?
**A.** tendency to reduce

**Q.** And the Bone marrow hypercellularity [1]?
**A.** decrease

**Q.** And the Splenic architecture [1]?
**A.** improved

**Q.** What about the “Stability of solution at room temperature” value ([2]; mono-phosphate salt in 0.5% HPMC, 7.9 mg/ml) of the same compound?
**A.** 4 days

**Q.** What about the “T/C last day (%)” value [3, 7] of the same compound?
**A.** 40%

**Q.** And the “Fractional change in Biolux” value [3, 7]?
**A.** 717

**Q.** What about the “Hct (%) (mean ± SEM)” value [4, 6] of the same compound?
**A.** 59.4%

**Q.** What about the “PLT (×10^9/L) (mean ± SEM)” value [4, 6] of the same compound?
**A.** 695.9 ×10^9/L

**Q.** And the “Retic counts (×10^12/L) (mean ± SEM)” value [4, 6]?
**A.** 0.42 ×10^12/L

**Q.** And the “WBC (×10^9/L) (mean ± SEM)” value ([4]; sacrifice day after 21 days, Compound B 8 mg/kg ip, Compound A 60 mg/kg po q12h, or Combo, all values)?
**A.** 22.2 ×10^9/L

**Q.** And the “GFP positive circulating cells (%)” value ([4]; sacrifice day after 21 days, allele burden surrogate, Compound B 8 mg/kg ip, Compound A 60 mg/kg po q12h, or Combo)?
**A.** 34.0%

**Q.** And the “WBC (×10^9/L), mean without outlier” value ([4]; sacrifice day, Compound A 60 mg/kg po q12h, value between brackets, 1 outlier excluded)?
**A.** (7.46 ×10^9/L

**Q.** What about the “BW change (%) (mean ± SEM)” value [5] of the same compound?
**A.** 0.45%

— patent publication US20180085371A1, “COMBINATION OF PANOBINOSTAT AND RUXOLITINIB IN THE TREATMENT OF CANCER SUCH AS A MYELOPROLIFERATIVE NEOPLASM” (Novartis AG, priority 2011, published 2018)
